Test results taken from article PMC10141620 (Viruses, 2023).
≈ marks a conversion by molar mass, not a printed value. Entries after “also recorded” stand apart in the source; their conditions may differ. Read-outs that look alike come from different tables or passages of the source.

Key:
[1] = test system: NL4-3ΔEnv-NanoLuc/SARS-CoV-2 (USA-WA1/2020) pseudovirus; experiment: organism not typed; format: cell-based
[2] = test system: NL4-3ΔEnv-NanoLuc/SARS-CoV-1 pseudovirus; experiment: microbe, parasite or virus in culture; format: cell-based; settings: Severe acute respiratory syndrome coronavirus
[3] = test system: NL4-3ΔEnv-NanoLuc/MERS-CoV pseudovirus; experiment: microbe, parasite or virus in culture; format: cell-based; settings: Middle East respiratory syndrome-related coronavirus
[4] = test system: NL4-3ΔEnvLuc/A-MLV pseudovirus; experiment: microbe, parasite or virus in culture; format: cell-based, amphotropic murine leukemia virus (A-MLV); settings: 293T/ACE2, read-out: A-MLV IC50
[5] = test system: SARS-CoV-2 spike (Wuhan-Hu-1) mediated cell-to-cell fusion, Jurkat donor / 293T/ACE2 acceptor cells; experiment: microbe, parasite or virus in culture; format: cell-based; settings: for IC50: Severe acute respiratory syndrome coronavirus 2, 4 h, read-out: IC50, cell-to-cell fusion inhibition
in vitro [6] = settings: human
in vitro [7] = settings: human; remark: listed apart in the source
in vitro [8] = settings: human; remark: listed apart in the source
in vitro [9] = settings: human; remark: listed apart in the source
in vitro [10] = settings: human; remark: listed apart in the source
SARS-CoV-1 Urbani = experiment: microbe, parasite or virus in culture; format: cell-based; settings: Severe acute respiratory syndrome coronavirus, Calu-3, read-out: IC50, SARS-CoV-1 Urbani
MERS-CoV, EMC/2012 = experiment: microbe, parasite or virus in culture; format: cell-based; settings: Middle East respiratory syndrome-related coronavirus, Calu-3, read-out: IC50, MERS-CoV
[11] = test system: SARS-CoV-2 strains, SARS-COV-1, and MERS-CoV pseudoviruses; experiment: organism not typed; format: cell-based; settings: Calu-3, read-out: IC50, range over all the viral clones evaluated
[12] = pH 7.4
in vitro [13] = settings: human; remark: listed apart in the source
physchem = settings: pH 7.4
in vitro [14] = settings: human; remark: listed apart in the source
in vitro [15] = settings: human, microsomes, pH 7.4
CYP1A2 = CYP1A2 (Homo sapiens, UniProt P05177); experiment: biochemical
Sequence of CYP1A2 (P05177 whole entry): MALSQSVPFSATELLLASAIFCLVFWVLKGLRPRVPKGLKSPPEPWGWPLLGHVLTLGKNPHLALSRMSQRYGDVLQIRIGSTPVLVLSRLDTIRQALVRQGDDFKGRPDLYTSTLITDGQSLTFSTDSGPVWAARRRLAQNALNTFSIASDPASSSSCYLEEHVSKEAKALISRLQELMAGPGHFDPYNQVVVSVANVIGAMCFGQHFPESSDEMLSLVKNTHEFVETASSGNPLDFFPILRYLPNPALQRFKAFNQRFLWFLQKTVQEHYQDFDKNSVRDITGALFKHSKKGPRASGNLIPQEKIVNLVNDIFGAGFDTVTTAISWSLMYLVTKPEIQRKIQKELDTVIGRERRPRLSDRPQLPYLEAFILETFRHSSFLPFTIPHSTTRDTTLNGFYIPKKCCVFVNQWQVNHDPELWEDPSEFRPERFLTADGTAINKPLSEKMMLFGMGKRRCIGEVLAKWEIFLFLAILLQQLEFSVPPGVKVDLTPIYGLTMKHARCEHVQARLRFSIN

CYP2B6 = CYP2B6 (Homo sapiens, UniProt P20813); experiment: biochemical
Sequence of CYP2B6 (P20813 whole entry): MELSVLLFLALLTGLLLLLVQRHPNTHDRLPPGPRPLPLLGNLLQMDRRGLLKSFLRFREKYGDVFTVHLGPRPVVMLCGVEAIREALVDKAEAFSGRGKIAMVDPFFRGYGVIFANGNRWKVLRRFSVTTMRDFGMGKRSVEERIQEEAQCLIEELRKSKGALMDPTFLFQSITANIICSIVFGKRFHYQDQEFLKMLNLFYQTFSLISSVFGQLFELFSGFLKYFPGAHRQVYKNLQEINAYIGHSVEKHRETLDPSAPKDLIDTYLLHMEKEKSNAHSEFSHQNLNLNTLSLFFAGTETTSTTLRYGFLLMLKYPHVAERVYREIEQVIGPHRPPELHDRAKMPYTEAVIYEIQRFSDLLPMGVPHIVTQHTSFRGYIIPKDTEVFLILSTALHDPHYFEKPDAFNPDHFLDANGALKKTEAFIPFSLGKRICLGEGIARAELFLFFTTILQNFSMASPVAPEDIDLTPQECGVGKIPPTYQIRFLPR

CYP2C8 = CYP2C8 (Homo sapiens, UniProt P10632); experiment: biochemical
Sequence of CYP2C8 (P10632 whole entry): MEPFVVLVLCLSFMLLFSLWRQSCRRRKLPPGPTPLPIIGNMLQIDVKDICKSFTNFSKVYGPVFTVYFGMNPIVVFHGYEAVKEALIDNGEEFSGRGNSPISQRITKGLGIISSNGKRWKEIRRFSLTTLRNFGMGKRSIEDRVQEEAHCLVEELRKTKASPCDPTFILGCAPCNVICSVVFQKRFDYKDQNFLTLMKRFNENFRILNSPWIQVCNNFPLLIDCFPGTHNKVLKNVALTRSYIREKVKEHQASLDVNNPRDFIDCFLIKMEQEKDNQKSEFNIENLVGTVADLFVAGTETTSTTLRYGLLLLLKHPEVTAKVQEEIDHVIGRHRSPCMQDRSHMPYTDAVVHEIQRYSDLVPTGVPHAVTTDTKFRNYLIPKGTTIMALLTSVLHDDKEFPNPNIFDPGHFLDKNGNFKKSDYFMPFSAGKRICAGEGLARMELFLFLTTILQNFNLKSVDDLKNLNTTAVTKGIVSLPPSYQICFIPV

CYP2C9 = CYP2C9 (Homo sapiens, UniProt P11712); experiment: biochemical
Sequence of CYP2C9 (P11712 whole entry): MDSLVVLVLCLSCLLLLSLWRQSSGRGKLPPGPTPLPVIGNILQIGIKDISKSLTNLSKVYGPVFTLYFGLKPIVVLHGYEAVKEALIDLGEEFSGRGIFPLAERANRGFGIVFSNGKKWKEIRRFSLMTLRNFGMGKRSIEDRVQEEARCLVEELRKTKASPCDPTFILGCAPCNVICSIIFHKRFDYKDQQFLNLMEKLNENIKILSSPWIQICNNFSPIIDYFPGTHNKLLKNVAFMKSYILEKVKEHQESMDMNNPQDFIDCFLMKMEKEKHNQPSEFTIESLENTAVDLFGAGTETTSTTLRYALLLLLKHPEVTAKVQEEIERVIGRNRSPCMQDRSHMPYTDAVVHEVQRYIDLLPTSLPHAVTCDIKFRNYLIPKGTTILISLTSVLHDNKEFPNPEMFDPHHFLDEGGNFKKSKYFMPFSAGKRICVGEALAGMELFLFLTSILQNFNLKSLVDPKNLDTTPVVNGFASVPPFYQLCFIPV

CYP2C19 = CYP2C19 (Homo sapiens, UniProt P33261); experiment: biochemical
Sequence of CYP2C19 (P33261 whole entry): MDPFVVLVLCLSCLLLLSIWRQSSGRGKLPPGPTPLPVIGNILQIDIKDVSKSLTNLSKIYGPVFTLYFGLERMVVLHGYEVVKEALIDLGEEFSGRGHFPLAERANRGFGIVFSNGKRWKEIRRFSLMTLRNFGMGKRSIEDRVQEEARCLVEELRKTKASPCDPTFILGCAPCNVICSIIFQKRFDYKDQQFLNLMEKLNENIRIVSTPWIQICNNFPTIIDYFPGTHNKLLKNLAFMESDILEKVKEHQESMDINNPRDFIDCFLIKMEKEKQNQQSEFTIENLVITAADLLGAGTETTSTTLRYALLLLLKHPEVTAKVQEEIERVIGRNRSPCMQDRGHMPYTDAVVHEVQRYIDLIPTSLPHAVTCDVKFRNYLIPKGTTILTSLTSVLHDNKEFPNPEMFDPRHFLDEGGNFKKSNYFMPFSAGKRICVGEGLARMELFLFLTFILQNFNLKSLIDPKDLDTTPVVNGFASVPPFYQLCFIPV

CYP2D6 = CYP2D6 (Homo sapiens, UniProt P10635); experiment: biochemical
Sequence of CYP2D6 (P10635 whole entry): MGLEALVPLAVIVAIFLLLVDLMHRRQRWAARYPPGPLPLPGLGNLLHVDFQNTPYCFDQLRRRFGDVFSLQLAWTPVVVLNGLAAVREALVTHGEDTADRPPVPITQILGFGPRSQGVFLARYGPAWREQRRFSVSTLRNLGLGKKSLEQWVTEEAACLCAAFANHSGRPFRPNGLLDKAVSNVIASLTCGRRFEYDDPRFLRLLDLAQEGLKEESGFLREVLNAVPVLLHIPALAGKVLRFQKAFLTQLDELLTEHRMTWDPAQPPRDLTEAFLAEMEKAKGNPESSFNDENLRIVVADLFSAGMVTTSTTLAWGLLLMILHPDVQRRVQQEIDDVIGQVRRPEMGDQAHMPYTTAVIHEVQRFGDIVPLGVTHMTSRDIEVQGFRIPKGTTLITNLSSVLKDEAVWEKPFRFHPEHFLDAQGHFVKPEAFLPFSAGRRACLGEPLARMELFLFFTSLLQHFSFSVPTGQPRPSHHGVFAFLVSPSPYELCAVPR

Plasma protein binding = settings: human, pH 7.4
[16] = Calu-3, read-out: SARS-CoV-2 USA-WA1/2020 IC50
[17] = Pseudovirus, 293T/ACE2, read-out: IC50, range over both cell lines
[18] = 293T/ACE2, read-out: SARS-CoV-1 IC50
[19] = A549-ACE2, read-out: SARS-CoV-1 IC50
[20] = Calu-3, read-out: SARS-CoV-1 IC50
[21] = Caco-2, read-out: MERS-CoV IC50
[22] = Calu-3, read-out: MERS-CoV IC50

| Compound | IC50 [1, 16] [nM] | IC50 ([1]; Pseudovirus, 293T/ACE2) [nM] | IC50 ([1]; Pseudovirus, A549-ACE2) [nM] | IC50 [2, 18] [nM] | IC50 [2, 19] [nM] | IC50 [2, 20] [nM] | IC50 [3, 21] [nM] | IC50 [3, 22] [nM] | IC50 ([3]; MRC5, read-out: MERS-CoV IC50) [nM] | IC50 [4] [nM] | IC50 [5] [nM] | CC50 (in vitro [6]) [nM] | CC50 (in vitro [7]) [nM] | CC50 (in vitro [8]) [nM] | CC50 (in vitro [9]) [nM] | CC50 (in vitro [10]) [nM] | other results |
| --- | --- | --- | --- | --- | --- | --- | --- | --- | --- | --- | --- | --- | --- | --- | --- | --- | --- |
| Cc1ccc2nc3s/c(=C/c4coc(-c5ccc(Cl)c(C(=O)O)c5)c4)c(=O)n3c2c1 [NBCoV35] | 360 ± 35 | 198 ± 9 | 126 ± 3 | 380 ± 69 | 363 ± 11 | 1250 ± 45 | 472 ± 43 | 1670 ± 225 | 715 ± 43 | 1820 ± 25 | 2800 | ~50000 | ~50000 | > 50000 | > 50000 | > 50000 | IC50 [1, 17]: 66 to 198 nM; IC50, cell-to-cell fusion inhibition ([5]; 4 h): the least active |
| O=C(O)c1cc(-c2ccc(/C=c3\sc4nc(=O)c5c6c(sc5n4c3=O)CCCC6)o2)ccc1Cl [NBCoV36] | 433 ± 49 | 330 ± 18 | 227 ± 18 | 660 ± 30 | 147 ± 19 | 627 ± 58 | 428 ± 34 | 589 ± 117 | 837 ± 38 | 3300 ± 100 | 900 | 43000 ± 900 | > 50000 | > 50000 | > 50000 | > 50000 | – |
| Cc1cc(C)c2nc3s/c(=C\c4ccc(-c5ccc(Cl)c(C(=O)O)c5)o4)c(=O)n3c2c1 [NBCoV37] | 368 ± 45 | 66 ± 2 | 145 ± 12 | 340 ± 34 | 95 ± 1 | 1000 ± 132 | 161 ± 53 | 877 ± 50 | 229 ± 20 | 1510 ± 88 | 1400 | 42500 ± 2000 | ~50000 | > 50000 | 48000 ± 2000 | > 50000 | IC50 [1, 17]: 66 to 198 nM; IC50 ([3]; read-out: MERS-CoV IC50, range over both cell lines): 161 to 229 nM |
| O=C(O)c1cc(C(=O)O)cc(-c2ccc(C=c3sc4nc5ccccc5n4c3=O)o2)c1 [NBCoV62] | – | > 10000 | > 10000 | – | – | – | – | – | – | – | – | > 50000 | > 50000 | – | – | – | – |
| Cc1cc2nc3s/c(=C/c4ccc(-c5cccc(C(=O)O)c5)o4)c(=O)n3c2cc1C [NBCoV63] | 120 ± 6 | 80 ± 7 | 55 ± 3 | 110 ± 0.5 | 59 ± 1.5 | 133 ± 28 | 75 ± 25 | 220 ± 30 | 102 ± 1 | 303 ± 29 | 900 | ≥ 50000 | ≥ 50000 | > 50000 | > 50000 | 50000 | antiviral activity (in words) [1]: Active; IC50 (SARS-CoV-1 Urbani): 3980 nM; IC50 (MERS-CoV, EMC/2012): 8010 nM; IC50 [11]: 120 to 220 nM; solubility [12]: low; CC50 (in vitro [13]): > 50000 nM; solubility (physchem): 6.25 µM (≈ 2.6 µg/mL); efflux ratio (in vitro [14]; Caco-2): 42.3; Papp A→B (in vitro [14]; Caco-2, pH 7.4): 0.00242 ×10⁻⁶ cm/s; Papp B→A (in vitro [14]; Caco-2, pH 7.4): 0.19 ×10⁻⁶ cm/s; half-life (in vitro [15]): > 3 h; microsomal CLint (in vitro [15]): 3.4 µL/min/mg; IC50 (CYP1A2): > 25000 nM; IC50 (CYP2B6): > 25000 nM; IC50 (CYP2C8): > 25000 nM; IC50 (CYP2C9): > 25000 nM; IC50 (CYP2C19): > 25000 nM; IC50 (CYP2D6): > 25000 nM; fraction unbound at 4 h, 5 µM (Plasma protein binding): < 0.005 |
| Cc1cc2nc3s/c(=C\c4ccc(-c5ccc6c(c5)COC6=O)o4)c(=O)n3c2cc1C [NBCoV65] | – | > 10000 | > 10000 | – | – | – | – | – | – | – | – | > 50000 | > 50000 | – | – | – | – |
| O=c1/c(=C/c2ccc(-c3ccccc3)o2)sc2nc3ccccc3n12 [NBCoV66] | – | > 10000 | > 10000 | – | – | – | – | – | – | – | – | > 50000 | > 50000 | – | – | – | antiviral activity (in words) [1]: no antiviral activity; also recorded: Inactive |
| Cc1ccc2c(nc3s/c(=C\c4ccc(-c5ccccc5C(=O)O)o4)c(=O)n32)c1C [NBCoV68] | – | 3900 ± 100 | 2300 ± 70 | – | – | – | – | – | – | – | – | > 50000 | > 50000 | – | – | – | – |
| Cc1ccc2c(nc3s/c(=C/c4ccc(-c5ccc(C(=O)O)cc5)o4)c(=O)n32)c1C [NBCoV69] | – | 2550 ± 105 | 3000 ± 400 | – | – | – | – | – | – | – | – | > 50000 | > 50000 | – | – | – | – |
| Cc1cc(C(=O)O)ccc1-c1ccc(/C=c2\sc3nc4ccccc4n3c2=O)o1 [NBCoV70] | – | 9500 ± 1000 | > 10000 | – | – | – | – | – | – | – | – | > 50000 | > 50000 | – | – | – | – |
| O=c1/c(=C\c2ccc(-c3cccc(Cl)c3)o2)sc2nc3ccccc3n12 [NBCoV71] | – | > 10000 | > 10000 | – | – | – | – | – | – | – | – | – | – | – | – | – | – |
